Where two headings read alike, the source gives them in different places. Values belong to the compound of their own block, whether it stands above or below them.
How the values were obtained:
[1] = system: M14 (amelanotic melanoma) cells; assay: antiproliferation assay (72 h, CELLTITER 96), M14; assay type: cell-based, human; conditions: Homo sapiens
Description: (§1) All of the compounds shown in Table 3-Table 8 below were prepared synthetically as described in EXAMPLE I. The compounds were tested for their ability to inhibit the proliferation of human cancer cells in vitro as described in the following paragraph. Table 3-Table 8 list the IC50 values in the M14 and NCI-H460 human cancer cell lines. IC50 is defined as the concentration of compound necessary to achieve 50% of the maximum growth inhibition.
(§2) For the antiproliferation assay, NCI-H460 (large cell lung carcinoma) or M14 (amelanotic melanoma) cells were grown in RPMI-1640 with 10% FBS supplemented with L-glutamine and HEPES. Cells were seeded into 96-well plates at 5×10^2 to 5×10^4 cells/well and allowed to adhere overnight; the medium was then removed. A stock solution of test compound in DMSO was diluted in medium to generate a series of working solutions. Aliquots (100 μl) of the working solutions were then added to the appropriate test wells to expose cells to the final concentrations of compound in a total volume of 100 μl. Seven different concentrations were tested, with 2-5 wells per concentration. Camptothecin was used as a positive control; wells containing vehicle without compound were used as negative controls. Plates were kept for 72 h in a 37° C., 5% CO2 incubator. After incubation, viable cells were detected with the CELLTITER 96 AQueous Non-Radioactive Cell Proliferation Assay (Promega), and IC50 values were determined using GraphPad Prism 5 software.

[2] = system: NCI-H460 (large cell lung carcinoma) cells; assay: antiproliferation assay (72 h, CELLTITER 96), NCI-H460; assay type: cell-based, human; conditions: Homo sapiens, read-out: NCI-H460 IC50
Description: as §1, §2

Compound: C=CC[C@H]1C[C@]2([C@@H](C)Cc3ccc(OC)c(OC(=O)N(C)C)c3)OCOC2=CC1=O [Compound 73, 5-((S)-2-((3aR,5S)-5-allyl-6-oxo-3a,4,5,6-tetrahydrobenzo[d][1,3]dioxol-3a-yl)propyl)-2-methoxyphenyl dimethylcarbamate]
IC50 ([1]; Table 4): > 20000 nM
IC50 ([2]; NCI-H460, Table 4): > 20000 nM

Compound: C=CC[C@H]1C[C@]2([C@H](C)Cc3ccc(OC)c(CO)c3)OCOC2=CC1=O [Compound 28, (6S,7aR)-6-allyl-7a-((R)-1-(3-(hydroxymethyl)-4-methoxyphenyl)propan-2-yl)-7,7a-dihydrobenzo[d][1,3]dioxol-5(6H)-one]
IC50 ([1]; Table 4): 10000 nM
IC50 ([2]; NCI-H460, Table 4): 4200 nM

Compound: C=CC[C@H]1C[C@]2([C@@H](C)Cc3cc(F)c(OC)cc3F)O[C@H](C)OC2=CC1=O [Compound 82, (2R,6S,7aR)-6-allyl-7a-((S)-1-(2,5-difluoro-4-methoxyphenyl)propan-2-yl)-2-methyl-7,7a-dihydrobenzo[d][1,3]dioxol-5(6H)-one]
IC50 ([1]; Table 8): > 20000 nM
IC50 ([2]; NCI-H460, Table 8): 5200 nM

Compound: C=CC[C@H]1C[C@]2([C@H](C)Cc3cc(F)c(OC)cc3F)O[C@H](C)OC2=CC1=O [Compound 89, (2R,6S,7aR)-6-allyl-7a-((R)-1-(2,5-difluoro-4-methoxyphenyl)propan-2-yl)-2-methyl-7,7a-dihydrobenzo[d][1,3]dioxol-5(6H)-one]
IC50 ([1]; Table 8): > 20000 nM
IC50 ([2]; NCI-H460, Table 8): 6900 nM

Compound: C=CC[C@H]1C[C@]2([C@H](C)Cc3ccc(N(C)C)c(F)c3)OCOC2=CC1=O [Compound 46, (6S,7aR)-6-allyl-7a-((R)-1-(4-(dimethylamino)-3-fluorophenyl)propan-2-yl)-7,7a-dihydrobenzo[d][1,3]dioxol-5(6H)-one]
IC50 ([1]; Table 5): 640 nM
IC50 ([2]; NCI-H460, Table 5): 1400 nM

Compound: C=CC[C@H]1C[C@]2(CCc3ccc(OC)c(OC)c3)OCOC2=CC1=O [Compound 72, (6S,7aS)-6-allyl-7a-(3,4-dimethoxyphenethyl)-7,7a-dihydrobenzo[d][1,3]dioxol-5(6H)-one]
IC50 ([1]; Table 8): 2000 nM
IC50 ([2]; NCI-H460, Table 8): 3200 nM

Compound: C=CC[C@H]1C[C@]2(C(C)Cc3ccc(OC)cc3OC)OCOC2=CC1=O (stereo partly drawn) [Compound 52, (6S,7aR)-6-allyl-7a-(1-(2,4-dimethoxyphenyl)propan-2-yl)-7,7a-dihydrobenzo[d][1,3]dioxol-5(6H)-one]
IC50 ([1]; Table 6): 15000 nM
IC50 ([2]; NCI-H460, Table 6): 15000 nM

Compound: C=CC[C@H]1C[C@]2([C@H](C)Cc3ccc(OC)cc3C)OCOC2=CC1=O [Compound 51, (6S,7aR)-6-allyl-7a-((R)-1-(4-methoxy-2-methylphenyl)propan-2-yl)-7,7a-dihydrobenzo[d][1,3]dioxol-5(6H)-one]
IC50 ([1]; Table 6): 280 nM
IC50 ([2]; NCI-H460, Table 6): 780 nM

Compound: COc1ccc(CC(C)[C@]23C[C@H](CCCF)C(=O)C=C2OCO3)cc1OC (stereo partly drawn) [Compound 107, (6S,7aR)-7a-(1-(3,4-dimethoxyphenyl)propan-2-yl)-6-(3-fluoropropyl)-7,7a-dihydrobenzo[d][1,3]dioxol-5(6H)-one]
IC50 ([1]; Table 7): > 20000 nM
IC50 ([2]; NCI-H460, Table 7): > 20000 nM

Compound: C=CC[C@H]1C[C@]2([C@@H](CC)Cc3ccc(OC)c(OC)c3)OCOC2=CC1=O [Compound 87, (6S,7aR)-6-allyl-7a-(1-(3,4-dimethoxyphenyl)butan-2-yl)-7,7a-dihydrobenzo[d][1,3]dioxol-5(6H)-one]
IC50 ([1]; Table 8): 2600 nM
IC50 ([2]; NCI-H460, Table 8): 11000 nM

Results, then the compound that gave them:

IC50 ([1]; Table 3): > 20000 nM
IC50 ([2]; NCI-H460, Table 3): > 20000 nM
Compound: C=CC[C@H]1C[C@]2([C@@H](C)Cc3cc(-c4nnn[nH]4)c(OC)cc3F)OCOC2=CC1=O [Compound 95, (6S,7aR)-6-allyl-7a-((S)-1-(2-fluoro-4-methoxy-5-(1H-tetrazol-5-yl)phenyl)propan-2-yl)-7,7a-dihydrobenzo[d][1,3]dioxol-5(6H)-one]

IC50 ([1]; Table 6): 270 nM
IC50 ([2]; NCI-H460, Table 6): 2300 nM
Compound: C=CC[C@H]1C[C@]2([C@@H](C)Cc3ccc(OC)cc3OC(C)=O)OCOC2=CC1=O [Compound 53, 2-((S)-2-((3aR,5S)-5-allyl-6-oxo-3a,4,5,6-tetrahydrobenzo[d][1,3]dioxol-3a-yl)propyl)-5-methoxyphenyl acetate]

IC50 ([1]; Table 7): 860 nM
IC50 ([2]; NCI-H460, Table 7): 820 nM
Compound: COc1ccc(C[C@H](C)[C@]23C[C@H](CC=C(F)F)C(=O)C=C2OCO3)c(F)c1 [Compound 68, (6S,7aR)-6-(3,3-difluoroallyl)-7a-((S)-1-(2-fluoro-4-methoxyphenyl)propan-2-yl)-7,7a-dihydrobenzo[d][1,3]dioxol-5(6H)-one]

IC50 ([1]; Table 7): > 20000 nM
IC50 ([2]; NCI-H460, Table 7): > 20000 nM
Compound: COc1cc(F)c(C[C@H](C)[C@]23CCC(=O)C=C2OCO3)cc1O [Compound 104, (R)-7a-((S)-1-(2-fluoro-5-hydroxy-4-methoxyphenyl)propan-2-yl)-7,7a-dihydrobenzo[d][1,3]dioxol-5(6H)-one]

IC50 ([1]; Table 7): 190 nM
IC50 ([2]; NCI-H460, Table 7): 270 nM
Compound: COCC[C@H]1C[C@]2([C@@H](C)Cc3cc(O)c(OC)cc3F)OCOC2=CC1=O [Compound 78, (6S,7aR)-7a-((S)-1-(2-fluoro-5-hydroxy-4-methoxyphenyl)propan-2-yl)-6-(2-methoxyethyl)-7,7a-dihydrobenzo[d][1,3]dioxol-5(6H)-one]

IC50 ([1]; Table 3): 240 nM
IC50 ([2]; NCI-H460, Table 3): 520 nM
Compound: C=CC[C@H]1C[C@]2([C@@H](C)Cc3cc(C(=O)NC)c(OC)cc3F)OCOC2=CC1=O [Compound 12, 5-((S)-2-((3aR,5S)-5-allyl-6-oxo-3a,4,5,6-tetrahydrobenzo[d][1,3]dioxol-3a-yl)propyl)-4-fluoro-2-methoxy-N-methylbenzamide]

IC50 ([1]; Table 7): 650 nM
IC50 ([2]; NCI-H460, Table 7): 1500 nM
Compound: COc1cc(F)c(C[C@H](C)[C@]23C[C@H](CC(C)O)C(=O)C=C2OCO3)cc1O (stereo partly drawn) [Compound 109, (6S,7aR)-7a-((S)-1-(2-fluoro-5-hydroxy-4-methoxyphenyl)propan-2-yl)-6-(2-hydroxypropyl)-7,7a-dihydrobenzo[d][1,3]dioxol-5(6H)-one]

IC50 ([1]; Table 7): 3500 nM
IC50 ([2]; NCI-H460, Table 7): 2000 nM
Compound: COc1cc(F)c(C[C@H](C)[C@]23C[C@H](Cc4ccncc4)C(=O)C=C2OCO3)cc1O [Compound 114, (6S,7aR)-7a-((S)-1-(2-fluoro-5-hydroxy-4-methoxyphenyl)propan-2-yl)-6-(pyridin-4-ylmethyl)-7,7a-dihydrobenzo[d][1,3]dioxol-5(6H)-one]

IC50 ([1]; Table 7): > 20000 nM
IC50 ([2]; NCI-H460, Table 7): 1700 nM
Compound: COc1ccc(C[C@H](C)[C@]23C[C@H](CC4CC4)C(=O)C=C2OCO3)c(F)c1 (relative stereo) [Compound 63, (7aR)-6-(cyclopropylmethyl)-7a-((S)-1-(2-fluoro-4-methoxyphenyl)propan-2-yl)-7,7a-dihydrobenzo[d][1,3]dioxol-5(6H)-one]

IC50 ([1]; Table 7): 7000 nM
IC50 ([2]; NCI-H460, Table 7): 15000 nM
Compound: COc1cc(F)c(C[C@H](C)[C@]23C[C@H](CC(C)=O)C(=O)C=C2OCO3)cc1O [Compound 111, (6R,7aR)-7a-((S)-1-(2-fluoro-5-hydroxy-4-methoxyphenyl)propan-2-yl)-6-(2-oxopropyl)-7,7a-dihydrobenzo[d][1,3]dioxol-5(6H)-one]

IC50 ([1]; Table 3): 160 nM
IC50 ([2]; NCI-H460, Table 3): 410 nM
Compound: C=CC[C@H]1C[C@]2([C@@H](C)Cc3cc(NC(C)=O)c(OC)cc3F)OCOC2=CC1=O [Compound 18, N-(5-((S)-2-((3aR,5S)-5-allyl-6-oxo-3a,4,5,6-tetrahydrobenzo[d][1,3]dioxol-3a-yl)propyl)-4-fluoro-2-methoxyphenyl)acetamide]

IC50 ([1]; Table 7): 570 nM
IC50 ([2]; NCI-H460, Table 7): 510 nM
Compound: COc1cc(F)c(C[C@H](C)[C@]23C[C@H](CCCF)C(=O)C=C2OCO3)cc1O [Compound 69, (6S,7aR)-7a-((S)-1-(2-fluoro-5-hydroxy-4-methoxyphenyl)propan-2-yl)-6-(3-fluoropropyl)-7,7a-dihydrobenzo[d][1,3]dioxol-5(6H)-one]

IC50 ([1]; Table 3): > 20000 nM
IC50 ([2]; NCI-H460, Table 3): > 20000 nM
Compound: C=CC[C@H]1C[C@]2(C(C)Cc3cc(C(=O)O)c(OC)cc3F)OCOC2=CC1=O (stereo partly drawn) [Compound 92, 5-(2-((3aR,5S)-5-allyl-6-oxo-3a,4,5,6-tetrahydrobenzo[d][1,3]dioxol-3a-yl)propyl)-4-fluoro-2-methoxybenzoic acid]

IC50 ([1]; Table 3): 900 nM
IC50 ([2]; NCI-H460, Table 3): 2400 nM
Compound: C=CC[C@H]1C[C@]2([C@H](C)Cc3ccc(OC)c(F)c3F)OCOC2=CC1=O [Compound 22, (6S,7aR)-6-allyl-7a-((R)-1-(2,3-difluoro-4-methoxyphenyl)propan-2-yl)-7,7a-dihydrobenzo[d][1,3]dioxol-5(6H)-one]

IC50 ([1]; Table 5): 98 nM
IC50 ([2]; NCI-H460, Table 5): 340 nM
Compound: C=CCC1C[C@]2([C@@H](C)Cc3cc(F)c(NC)cc3F)OCOC2=CC1=O (mixture of isomers) [Compound 45, 6-allyl-7a-(1-(2,5-difluoro-4-(methylamino)phenyl)propan-2-yl)-7,7a-dihydrobenzo[d][1,3]dioxol-5(6H)-one]

IC50 ([1]; Table 3): 210 nM
IC50 ([2]; NCI-H460, Table 3): 260 nM
Compound: C=CC[C@H]1C[C@]2([C@H](C)Cc3cc(C(=O)OC)c(OC)cc3F)OCOC2=CC1=O [Compound 9, methyl 5-((R)-2-((3aR,5S)-5-allyl-6-oxo-3a,4,5,6-tetrahydrobenzo[d][1,3]dioxol-3a-yl)propyl)-4-fluoro-2-methoxybenzoate]

Reference: patent US9562031B1, “Phenethyldihydrobenzodioxolones and methods of use” (Sequoia Sciences, Inc., priority 2015, dated 2017)
